# Reference: ChEMBL document CHEMBL1158306, “Chlorinated annonaceous acetogenins and their bioactivities” (J Nat Prod, 1996)
# Tests used:
# [1] = test system: HT-29; assay: Cytotoxicity against human HT29 cells after 7 days by MTT assay; assay type: functional; conditions: for EC50: Homo sapiens, HT-29, 168 h, read-out: ED50 (the source's name)
# [2] = test system: PC-3; assay: Cytotoxicity against human PC3 cells after 7 days by MTT assay; assay type: functional; conditions: PC-3, 168 h, read-out: ED50 (the source's name)
# [3] = test system: MCF7; assay: Cytotoxicity against human MCF7 cells after 7 days by MTT assay; assay type: functional; conditions: MCF7, 168 h, read-out: ED50 (the source's name)
# [4] = test system: MIA PaCa-2; assay: Cytotoxicity against human MIAPaCa2 cells after 7 days by MTT assay; assay type: functional; conditions: MIA PaCa-2, 168 h, read-out: ED50 (the source's name)
# [5] = test system: A498; assay: Cytotoxicity against human A498 cells after 7 days by MTT assay; assay type: functional; conditions: A498, 168 h, read-out: ED50 (the source's name)
# [6] = Toxicity in brine shrimp larvae; assay type: organism-based; conditions: artemia, in vivo
# [7] = test system: A549; assay: Cytotoxicity against human A549 cells after 7 days by MTT assay; assay type: functional; conditions: A549, 168 h, read-out: ED50 (the source's name)
Structure (SMILES),EC50 [1] [µg/mL],EC50 [2] [µg/mL],EC50 [3] [µg/mL],EC50 [4] [µg/mL],EC50 [5] [µg/mL],LC50 [6] [µg/mL],EC50 [7] [µg/mL],ED50 [1] [×10⁻⁵ ug/ml]
CCCCCCCCCCCCCC[C@H](O)[C@@H]1CC[C@@H]([C@@H]2CC[C@@H](CCCCC[C@@H](O)CC3=C[C@H](C)OC3=O)O2)O1 [ASIMILOBIN],0.063,,,,,,,
CCCCCCCCCCCCCC[C@@H](O)[C@H](O)CC[C@H](O)[C@@H]1CC[C@@H](CCCCC[C@H](Cl)CC2=C[C@H](C)OC2=O)O1,0.38,> 10,5.74,> 10,> 10,54.6,> 10,
COc1cccc2c1C(=O)c1c(O)c3c(c(O)c1C2=O)C[C@@](O)(C(=O)CO)C[C@@H]3O[C@H]1C[C@H](N)[C@H](O)[C@H](C)O1 [DOXORUBICIN],0.0346,0.0262,0.209,0.0079,0.00649,,0.0243,
CCCCCCCCCCCCCCC(Cl)[C@@H]1CC[C@H]([C@@H]2CC[C@@H](CCCCC[C@H](Cl)CC3=C[C@H](C)OC3=O)O2)O1 (stereo not given in full),> 10,0.755,> 10,1.16,2.47,31.9,2.39,
CCCCCCCCCCCCCC[C@@H](O)[C@H](O)CC[C@H](O)[C@@H]1CC[C@@H](CCCCC[C@@H](O)CC2=C[C@H](C)OC2=O)O1 [GIGANTETROCIN A],,,0.63,,,2.6,0.25,4.1
